Consider two molecules from US12624057B2, “Bisphosphonate quinolone conjugates and uses thereof” (BIOVINC, LLC, priority 2016, dated 2026).

Data set [1] relates to Aggregatibacter actinomycetemcomitans biofilms on titanium implants. The data set can be described thus: Rat jawbone peri-implant osteomyelitis model, second animal experiment. To be noted: for reduction of mean CFU/gram of tissue versus control (in words): single high dose 10 mg/kg, 10 mg/kg.
A short description of data set [2]: In vivo tolerability during the rat peri-implant osteomyelitis studies. Set-up: species or system Sprague-Dawley rats. The following applies: intraperitoneal. The text has this:
To determine appropriate dosing concentrations, we calculated approximate initial doses for the conjugate based on previous studies and pharmacokinetic data using similar target and release strategies and also rodents (Houghton, et al., Linking bisphosphonates to the free amino groups in fluoroquinolones: preparation of osteotropic prodrugs for the prevention of osteomyelitis. J Med Chem 2008; 51:6955-69; Morioka, et al., Design, synthesis, and biological evaluation of novel estradiol-bisphosphonate conjugates as bone-specific estrogens. Bioorg Med Chem 2010; 18:1143-8). We expected that increasing doses of 0.1, 1 and 10 mg/kg BP-ciprofloxacin molar equivalents will allow us to determine antimicrobial activity in 2 test animals per group based on sample size estimations and previous experience with the animal model (Freire, et al, Development of animal model for Aggregatibacter actinomycetemcomitans biofilm-mediated oral osteolytic infection: a preliminary study. J Periodontol 2011; 82:778-89). Animals were dosed via intraperitoneal injection under general anesthesia, and all compounds were constituted in sterile physiological injectable saline at appropriate pH. One week after pharmacotherapy, all animals were sacrificed and resection of peri-implant tissues was performed, and tissues were immediately homogenized and processed for quantitative assessment of microbial load. Animals were monitored throughout the study period for local or systemic adverse effects of pharmacotherapy.
To determine appropriate dosing concentrations, approximate initial doses were calculated for the conjugate based on previous studies and pharmacokinetic data using similar target and release strategies also in rodents.^13, 26 Increasing doses of 0.1, 1 and 10 mg/kg molar equivalents of 6 can allow for determination of antimicrobial activity in 2 test animals per group based on sample size estimations and previous experience with the animal model.^32 Animals were dosed via intraperitoneal injection under general anesthesia, and all compounds were constituted in sterile physiological injectable saline at appropriate pH.

In data set [3] the test system is Aggregatibacter actinomycetemcomitans biofilms on titanium implants. Kind of data set: Rat jawbone peri-implant osteomyelitis model, first animal experiment. The following applies: conjugate, 0.3 mg/kg ×3 over a week (0.9 mg/kg total). Format: in vivo, Sprague-Dawley rats.
For data set [4], the system named is Aggregatibacter actinomycetemcomitans (Aa; wild-type rough strain D7S-1; serotype a). Kind of data set: MIC assay on Aa. Format: cell-based. The text has this:
Since this BP-ciprofloxacin conjugate is novel and has not been tested in vivo, we performed an initial safety and efficacy study in an animal model of peri-implant osteomyelitis. This model is a unique in-house jawbone peri-implant osteomyelitis model that was developed specifically for translational value to study biofilm-mediated disease and host response in vivo (Freire, et al, Development of animal model for Aggregatibacter actinomycetemcomitans biofilm-mediated oral osteolytic infection: a preliminary study. J Periodontol 2011; 82:778-89). […] After biofilms are established on the implants in vitro, they are surgically transferred to the jawbone of each rat. Animals are anesthetized, the cheeks are retracted and a transmucosal osteotomy is performed so implants can be manually inserted into the osteotomy and secured. Two biofilm-inoculated implants are placed in each rat (n=12 rats and 24 implants) in the palatal bone bilaterally.
Subsequently, the plate was incubated for 24 h/37° C. in a shaker to obtain optimal conditions for microbial growth and to prevent bacteria from forming biofilms. After incubation, the absorbance was measured once again. The following control samples were established: negative control sample one: sterile medium without microbes; negative control sample two: sterile medium without microbes implemented with DMSO (dimethyl sulfoxide, Sigma-Aldritch) to final concentration of 1% (v/v); positive control sample one: medium+microbes with no compound tested; positive control sample two: medium+microbes with no compound tested but implemented with DMSO to final concentration of 1% (v/v). […] To assess relative number of cells, the following calculations were performed. […] Next, the relative number of cells subjected to incubation with tested compounds were counted as follows: […].
After biofilms were established on the implants in vitro, they were surgically transferred to the jawbone of each rat. […]

≈ marks a conversion by molar mass, not a printed value. Entries after “also recorded” stand apart in the source; their conditions may differ.

With `O=C(O)c1cn(C2CC2)c2cc(N3CCN(C(=O)Oc4ccc(CC(P(=O)(O)O)P(=O)(O)O)cc4)CC3)c(F)cc2c1=O` [Compound 6, 1-cyclopropyl-7-(4-((4-(2,2-diphosphonoethyl)phenoxy)carbonyl)piperazin-1-yl)-6-fluoro-4-oxo-1,4-dihydroquinoline-3-carboxylic acid], the “peri-implant inflammation at resection (in words)” value in data set [1] (majority of animals in the treatment groups) is given as “non-inflamed peri-implant tissues”. Also, the “significance of CFU reduction versus control (in words)” value in data set [1] (multiple low dose 0.3 mg/kg 3×/week) is “not for the multiple low dose group”. Moreover, the “kill of Aa in peri-implant tissue” value in data set [1] (single dose 10 mg/kg) is recorded as “approximately 6 log units”. Also, the “reduction of mean CFU/gram of tissue versus control (in words)” value in data set [1] is “revealed significance for the single high dose of 6 treatment as compared to the control; also recorded: greatest CFU reduction and efficacy was observed at the single high dose; also recorded: greatest efficacy was observed at a single high dose”; in data set [1] (listed as BCC) it was “greatest efficacy and was highly statistically significant; also recorded: greatest efficacy was again observed at a single high dose”. In addition, the “tolerability / adverse events” value was “no potential systemic toxicity or adverse effects” in data set [2] (first animal experiment, listed as BCC); “safety and efficacy was demonstrated in vivo” in data set [2] (first animal experiment, listed as BP-ciprofloxacin); “no signs of gross tolerability issues during therapy” in data set [2] (second animal experiment); “tolerated treatment and pharmacotherapy well with no adverse events” in data set [2] (second animal experiment, listed as BCC). In data set [3], this molecule yielded a bacterial killing of 100%. The “recovery of bacteria (in words)” value is listed as “no recoverable bacteria” in data set [3] and “no recovery of Aa; also recorded: no recoverable bacteria” in data set [3] (listed as BP-ciprofloxacin).
Turning to `O=C(O)c1cn(C2CC2)c2cc(N3CCNCC3)c(F)cc2c1=O` [ciprofloxacin, reference compound], the MIC90 in data set [4] (Example 1) worked out at 2 µg/mL (≈ 6.04 µM); in data set [4] (Example 5) it was 2 µg/mL (≈ 6.04 µM); in data set [4] (Example 6) it was 2000 µg/mL (≈ 6040 µM).
